Source: patent publication US20260256792A1, “TREATMENT OF CHRONIC SPONTANEOUS URTICARIA BY ADMINISTERING (R)-2-[3-[4-AMINO-3-(2-FLUORO-4-PHENOXY-PHENYL)PYRAZOLO[3,4-D]PYRIMIDIN-1-YL]PIPERIDINE-1-CARBONYL]-4-METHYL-4-[4-(OXETAN-3-YL)PIPERAZIN-1-YL]PENT-2-ENENITRILE” (priority 2023, published 2026)

Test system: moderate-to-severe chronic spontaneous urticaria (CSU)
Experiment: Phase 2 CSU study: urticaria activity score over 7 days (UAS7)
Assay type: in vivo, human
Design: key to UAS7 Median / UAS7 Change from baseline Median / UAS7 change from baseline, Q1 / UAS7 change from baseline, Q3 / UAS7 change from baseline, Max / UAS7 Change from baseline LS Mean (SE): UAS7 points; daily UAS score ranges 0–6 points/day, over 7 days
Settings: ITT population
Source text: The study comprises a 12 week, randomized, double-blind, placebo-controlled, multi-center, dose-ranging efficacy and safety phase, followed by a 40 week open label extension (OLE) phase (see FIG. 1). The study consists of three phases and an optional OLE phase. […] Clinically, CSU is characterized by the spontaneous and recurrent appearance of pruritic hives. The proposed primary endpoints were the UAS7 at Week 12 in EU and EU reference countries and the ISS7 in the US. Regardless of where a participant was from, all assessments were the same. The UAS7 score is a composite score containing both the HSS7 and the ISS7. This allowed a global assessment of the two key components of urticaria: hives and itch. […] The UAS is a validated PRO measure. […] The daily UAS scores range from 0 to 6 point/day. […] Patients were to complete the UAS using the e-diary. […] The following secondary endpoints were to be analyzed using the same approach as for the primary endpoint: • Change from baseline in UAS7 at Week 4 • Change from baseline in UAS7 at Week 12 (for US and US reference countries) • Change from baseline in ISS7 at Week 12 (except US and US reference countries) • Change from baseline in HSS7 at Week 12 The following responder secondary endpoints were to be analyzed using the Cochran-Mantel-Haenszel test adjusted by region: • Proportion of participants with UAS7<6 at Week 12 • Proportion of participants with UAS7=0 at Week 12 Participants who received selected prohibited medications and/or rescue medications were to be considered as non-responders for time points after the medication usage. For other participants, all available data including those collected during the off-treatment period were to be used to determine the responder/non-responder status. Missing data were to be considered as non-responders.

## CC(C)(C=C(C#N)C(=O)N1CCC[C@@H](n2nc(-c3ccc(Oc4ccccc4)cc3F)c3c(N)ncnc32)C1)N1CCN(C2COC2)CC1 [rilzabrutinib, (R)-2-[3-[4-amino-3-(2-fluoro-4-phenoxy-phenyl)pyrazolo[3,4-d]pyrimidin-1-yl]piperidine-1-carbonyl]-4-methyl-4-[4-(oxetan-3-yl)piperazin-1-yl]pent-2-enenitrile]
400 mg QPM, Week 1
  UAS7 Change difference for rilzabrutinib vs. placebo LS Mean (95% CI): −3.61
  UAS7 Change from baseline LS Mean (SE): −7.44
  UAS7 Post-baseline Mean (SD): 23.84 (8.66)
400 mg QPM, Week 2
  UAS7 % Change difference for rilzabrutinib vs. placebo LS Mean (95% CI): −6.32%
  UAS7 % Change from baseline LS Mean (SE): −25.19%
  UAS7 Change difference for rilzabrutinib vs. placebo LS Mean (95% CI): −1.80
  UAS7 Change from baseline LS Mean (SE): −8.14
  UAS7 Post-baseline Mean (SD): 23.40 (8.85)
400 mg QPM, Week 4
  UAS7 % Change difference for rilzabrutinib vs. placebo LS Mean (95% CI): −5.97%
  UAS7 % Change from baseline LS Mean (SE): −29.23%
  UAS7 Change difference for rilzabrutinib vs. placebo LS Mean (95% CI): −1.48
  UAS7 Change from baseline LS Mean (SE): −9.55
  UAS7 Post-baseline Mean (SD): 21.82 (8.73)
400 mg QPM, Week 6
  UAS7 % Change difference for rilzabrutinib vs. placebo LS Mean (95% CI): −7.24%
  UAS7 % Change from baseline LS Mean (SE): −34.14%
  UAS7 Change difference for rilzabrutinib vs. placebo LS Mean (95% CI): −1.88
  UAS7 Change from baseline LS Mean (SE): −11.02
  UAS7 Post-baseline Mean (SD): 20.12 (10.28)
400 mg QPM, Week 7
  UAS7 % Change difference for rilzabrutinib vs. placebo LS Mean (95% CI): −7.16%
  UAS7 % Change from baseline LS Mean (SE): −34.50%
  UAS7 Change difference for rilzabrutinib vs. placebo LS Mean (95% CI): −1.89
  UAS7 Change from baseline LS Mean (SE): −10.95
  UAS7 Post-baseline Mean (SD): 20.98 (9.91)
400 mg QPM, Week 8
  UAS7 % Change difference for rilzabrutinib vs. placebo LS Mean (95% CI): −3.38%
  UAS7 % Change from baseline LS Mean (SE): −35.22%
  UAS7 Change difference for rilzabrutinib vs. placebo LS Mean (95% CI): −0.53
  UAS7 Change from baseline LS Mean (SE): −10.88
  UAS7 Post-baseline Mean (SD): 21.01 (10.40)
400 mg QPM, Week 9
  UAS7 % Change difference for rilzabrutinib vs. placebo LS Mean (95% CI): −8.48%
  UAS7 % Change from baseline LS Mean (SE): −36.53%
  UAS7 Change difference for rilzabrutinib vs. placebo LS Mean (95% CI): −1.73
  UAS7 Change from baseline LS Mean (SE): −11.33
  UAS7 Post-baseline Mean (SD): 20.18 (10.10)
400 mg QPM, Week 10
  UAS7 % Change difference for rilzabrutinib vs. placebo LS Mean (95% CI): −3.82%
  UAS7 % Change from baseline LS Mean (SE): −37.35%
  UAS7 Change difference for rilzabrutinib vs. placebo LS Mean (95% CI): −0.76
  UAS7 Change from baseline LS Mean (SE): −11.66
  UAS7 Post-baseline Mean (SD): 20.15 (10.55)
400 mg QPM, Week 11
  UAS7 % Change difference for rilzabrutinib vs. placebo LS Mean (95% CI): −5.62%
  UAS7 % Change from baseline LS Mean (SE): −36.39%
  UAS7 Change difference for rilzabrutinib vs. placebo LS Mean (95% CI): −0.52
  UAS7 Change from baseline LS Mean (SE): −10.92
  UAS7 Post-baseline Mean (SD): 21.08 (11.00)
400 mg QPM, Week 12
  UAS7 % Change difference for rilzabrutinib vs. placebo LS Mean (95% CI): −2.09%
  UAS7 % Change from baseline LS Mean (SE): −35.03%
  UAS7 Change difference for rilzabrutinib vs. placebo LS Mean (95% CI): 0.97
  UAS7 Change from baseline LS Mean (SE): −10.22
  UAS7 Post-baseline Mean (SD): 21.80 (10.94)
400 mg TID, Week 2
  UAS7 % Change difference for rilzabrutinib vs. placebo LS Mean (95% CI): −29.83%
  UAS7 % Change from baseline LS Mean (SE): −48.69%
  UAS7 Change difference for rilzabrutinib vs. placebo LS Mean (95% CI): −8.72
  UAS7 Change from baseline LS Mean (SE): −15.06
  UAS7 Post-baseline Mean (SD): 14.58 (10.74)
400 mg TID, Week 3
  UAS7 % Change difference for rilzabrutinib vs. placebo LS Mean (95% CI): −28.32%
  UAS7 % Change from baseline LS Mean (SE): −49.95%
  UAS7 Change difference for rilzabrutinib vs. placebo LS Mean (95% CI): −7.56
  UAS7 Change from baseline LS Mean (SE): −15.15
  UAS7 Post-baseline Mean (SD): 14.42 (9.77)
400 mg TID, Week 4
  UAS7 % Change difference for rilzabrutinib vs. placebo LS Mean (95% CI): −25.68%
  UAS7 % Change from baseline LS Mean (SE): −48.94%
  UAS7 Change difference for rilzabrutinib vs. placebo LS Mean (95% CI): −6.71
  UAS7 Change from baseline LS Mean (SE): −14.78
  UAS7 Post-baseline Mean (SD): 13.93 (9.77)
400 mg TID, Week 5
  UAS7 % Change difference for rilzabrutinib vs. placebo LS Mean (95% CI): −22.21%
  UAS7 % Change from baseline LS Mean (SE): −54.01%
  UAS7 Change difference for rilzabrutinib vs. placebo LS Mean (95% CI): −6.47
